# Experimental data as given in patent publication US8044069B2, “Compounds as calcium channel blockers” (Abbott Laboratories, priority 2008, dated 2011).
# Molecular target: human Cav2.2 (Homo sapiens, UniProt Q00975)
# Assay: Assessment of calcium channel activity using FLIPR (Ca2+ influx in IMR32 cells)
# Format: cell-based
# Conditions: IMR32 cells endogenously expressing human Cav2.2; 60 minute pre-incubation; 2 μM nifedipine; depolarized with 80 mM KCl, 5 mM CaCl2
# Method: (i) In Vitro Methods—Assessment of Calcium Channel Activity Using FLIPR:
# The IMR32 cells were maintained in MEM media containing 10% (v/v) FBS, 1% (v/v) antibiotic/antimitotic, 1% (v/v) sodium pyruvate and 1% (v/v) MEM NEAA. Following dissociation in 0.05% (v/v) trypsin/EDTA, cells were seeded into black 1×96-well plates (Corning Cellbind) at a density of 1-1.2×10^5 cells/well and incubated in the maintenance media above for 48 hours at 37° C. […] After dye loading and a subsequent 60 minute pre-incubation with compounds (full log dilutions from 10 μM to 0.1 nM) in the presence of 1.3 mM CaCl2 and 2 μM nifedipine to block endogenous L-type channels, the external Ca^2+ concentration was increased to 5 mM CaCl2 and the cells concomitantly depolarized with 80 mM KCl to assay channel activity. To determine the IC50 values, the percent inhibition of the compound at each concentration was determined relative to the activity in the absence of inhibitor, and data was fitted using non-linear regression sigmoidal dose response curve analysis with GraphPad Prism®.
# Sequence of human Cav2.2 (Q00975 whole entry): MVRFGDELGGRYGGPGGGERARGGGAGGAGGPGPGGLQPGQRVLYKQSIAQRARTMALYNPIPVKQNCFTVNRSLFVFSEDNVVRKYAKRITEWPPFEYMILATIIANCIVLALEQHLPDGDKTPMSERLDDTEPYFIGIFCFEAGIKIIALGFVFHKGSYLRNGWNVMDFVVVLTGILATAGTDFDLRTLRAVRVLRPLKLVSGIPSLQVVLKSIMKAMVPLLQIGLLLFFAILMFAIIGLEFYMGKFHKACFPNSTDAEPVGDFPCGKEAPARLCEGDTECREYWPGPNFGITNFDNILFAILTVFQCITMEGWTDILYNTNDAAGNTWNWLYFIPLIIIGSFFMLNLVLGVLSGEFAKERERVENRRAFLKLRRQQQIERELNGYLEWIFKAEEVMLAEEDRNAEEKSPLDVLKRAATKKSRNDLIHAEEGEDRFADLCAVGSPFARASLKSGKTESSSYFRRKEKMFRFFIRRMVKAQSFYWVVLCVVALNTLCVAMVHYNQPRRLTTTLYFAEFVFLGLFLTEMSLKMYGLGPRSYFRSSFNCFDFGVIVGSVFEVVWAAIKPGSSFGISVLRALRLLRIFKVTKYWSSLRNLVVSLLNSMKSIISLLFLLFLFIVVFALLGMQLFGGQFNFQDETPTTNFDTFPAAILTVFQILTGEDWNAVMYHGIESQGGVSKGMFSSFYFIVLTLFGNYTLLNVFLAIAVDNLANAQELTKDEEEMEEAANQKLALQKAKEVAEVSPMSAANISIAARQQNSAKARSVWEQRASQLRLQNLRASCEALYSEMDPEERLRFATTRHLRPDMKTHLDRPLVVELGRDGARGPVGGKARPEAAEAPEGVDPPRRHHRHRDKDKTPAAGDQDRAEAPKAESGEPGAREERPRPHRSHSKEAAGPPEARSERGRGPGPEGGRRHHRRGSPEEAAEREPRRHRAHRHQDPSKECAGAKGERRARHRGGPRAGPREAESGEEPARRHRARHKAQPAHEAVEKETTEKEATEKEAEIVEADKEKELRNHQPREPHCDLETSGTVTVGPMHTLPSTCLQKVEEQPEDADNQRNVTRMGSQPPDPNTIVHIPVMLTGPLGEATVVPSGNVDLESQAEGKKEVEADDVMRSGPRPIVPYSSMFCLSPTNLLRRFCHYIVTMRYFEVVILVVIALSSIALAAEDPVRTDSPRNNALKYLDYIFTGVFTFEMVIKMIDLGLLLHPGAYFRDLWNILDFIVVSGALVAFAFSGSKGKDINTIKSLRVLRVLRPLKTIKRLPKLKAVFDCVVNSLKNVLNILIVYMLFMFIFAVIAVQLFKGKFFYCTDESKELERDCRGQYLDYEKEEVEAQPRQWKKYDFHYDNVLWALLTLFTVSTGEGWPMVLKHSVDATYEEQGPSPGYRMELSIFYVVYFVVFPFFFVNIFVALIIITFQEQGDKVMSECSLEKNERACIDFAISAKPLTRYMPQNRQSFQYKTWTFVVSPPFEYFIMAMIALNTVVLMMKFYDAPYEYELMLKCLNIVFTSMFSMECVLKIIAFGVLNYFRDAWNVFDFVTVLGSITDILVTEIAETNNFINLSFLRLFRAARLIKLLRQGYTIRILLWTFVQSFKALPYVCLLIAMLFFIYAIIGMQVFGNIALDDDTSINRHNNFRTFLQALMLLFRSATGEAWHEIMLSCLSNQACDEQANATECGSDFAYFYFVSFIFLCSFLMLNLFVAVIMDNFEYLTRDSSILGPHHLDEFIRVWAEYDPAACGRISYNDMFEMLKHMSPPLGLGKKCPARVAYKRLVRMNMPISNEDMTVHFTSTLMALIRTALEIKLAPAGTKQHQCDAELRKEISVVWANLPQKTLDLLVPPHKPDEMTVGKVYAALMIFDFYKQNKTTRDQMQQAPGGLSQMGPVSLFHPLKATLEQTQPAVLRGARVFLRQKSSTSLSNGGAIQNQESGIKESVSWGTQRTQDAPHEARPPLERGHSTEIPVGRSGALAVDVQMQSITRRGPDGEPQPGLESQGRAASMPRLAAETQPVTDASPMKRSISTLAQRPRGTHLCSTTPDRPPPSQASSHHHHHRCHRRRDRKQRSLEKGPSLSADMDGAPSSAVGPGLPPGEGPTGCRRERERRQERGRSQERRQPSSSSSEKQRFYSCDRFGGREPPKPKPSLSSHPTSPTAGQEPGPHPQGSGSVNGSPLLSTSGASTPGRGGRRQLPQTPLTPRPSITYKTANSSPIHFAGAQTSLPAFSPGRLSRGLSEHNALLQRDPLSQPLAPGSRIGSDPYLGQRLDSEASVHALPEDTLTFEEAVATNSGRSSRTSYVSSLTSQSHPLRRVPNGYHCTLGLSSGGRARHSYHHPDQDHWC
# Sequence of human Cav2.2 (P54289 25-951 partner limits assumed): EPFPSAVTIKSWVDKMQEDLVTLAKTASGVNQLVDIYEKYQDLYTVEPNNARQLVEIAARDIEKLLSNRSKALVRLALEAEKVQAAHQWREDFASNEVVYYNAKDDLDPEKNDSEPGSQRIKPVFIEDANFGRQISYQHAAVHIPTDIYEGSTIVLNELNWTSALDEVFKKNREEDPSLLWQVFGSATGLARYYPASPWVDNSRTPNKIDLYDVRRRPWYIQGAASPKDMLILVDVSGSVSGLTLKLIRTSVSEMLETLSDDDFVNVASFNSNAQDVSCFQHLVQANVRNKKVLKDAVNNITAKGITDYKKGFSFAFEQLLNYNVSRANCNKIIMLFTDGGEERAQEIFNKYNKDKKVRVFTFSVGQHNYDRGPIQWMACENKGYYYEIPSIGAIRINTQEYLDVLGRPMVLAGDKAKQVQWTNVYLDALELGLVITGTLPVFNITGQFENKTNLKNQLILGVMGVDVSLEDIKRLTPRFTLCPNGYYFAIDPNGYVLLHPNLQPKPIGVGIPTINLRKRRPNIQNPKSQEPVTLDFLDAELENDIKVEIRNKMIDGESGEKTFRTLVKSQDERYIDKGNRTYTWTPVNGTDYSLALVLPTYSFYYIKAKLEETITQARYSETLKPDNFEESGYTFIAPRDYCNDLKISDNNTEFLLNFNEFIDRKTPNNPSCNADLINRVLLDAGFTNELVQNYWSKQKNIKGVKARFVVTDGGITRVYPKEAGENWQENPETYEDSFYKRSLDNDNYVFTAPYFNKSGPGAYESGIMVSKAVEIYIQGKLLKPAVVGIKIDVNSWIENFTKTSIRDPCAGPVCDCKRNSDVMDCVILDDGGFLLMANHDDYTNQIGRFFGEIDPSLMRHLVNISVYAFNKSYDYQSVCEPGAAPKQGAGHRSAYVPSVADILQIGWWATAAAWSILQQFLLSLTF
# Sequence of human Cav2.2 (P54289 952-1103 partner limits assumed): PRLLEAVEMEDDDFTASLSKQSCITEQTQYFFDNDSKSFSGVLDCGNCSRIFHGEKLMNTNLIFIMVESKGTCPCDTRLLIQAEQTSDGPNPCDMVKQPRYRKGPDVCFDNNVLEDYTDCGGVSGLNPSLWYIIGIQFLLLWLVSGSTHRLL
# Sequence of human Cav2.2 (P54284 whole entry partner): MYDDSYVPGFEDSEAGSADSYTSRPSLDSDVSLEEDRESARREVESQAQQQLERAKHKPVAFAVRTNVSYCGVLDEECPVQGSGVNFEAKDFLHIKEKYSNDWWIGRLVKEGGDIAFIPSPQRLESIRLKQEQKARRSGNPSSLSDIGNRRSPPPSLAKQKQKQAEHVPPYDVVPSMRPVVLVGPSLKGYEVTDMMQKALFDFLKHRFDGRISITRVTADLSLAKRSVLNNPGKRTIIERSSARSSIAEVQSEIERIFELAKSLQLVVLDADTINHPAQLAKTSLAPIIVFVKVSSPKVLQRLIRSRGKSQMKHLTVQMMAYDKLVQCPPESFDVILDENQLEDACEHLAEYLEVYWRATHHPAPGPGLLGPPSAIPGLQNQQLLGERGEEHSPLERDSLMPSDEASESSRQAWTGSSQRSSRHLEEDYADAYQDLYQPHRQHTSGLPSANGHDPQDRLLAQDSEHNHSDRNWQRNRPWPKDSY
row,Compound,IC50
1,"O=C(CN1CCC(c2ccccc2)(c2ccccc2)C1=O)NC1(c2ccccc2)CCC1 [Example 11, 2-(2-oxo-3,3-diphenylpyrrolidin-1-yl)-N-(1-phenylcyclobutyl)acetamide]",890 nM
2,"O=C(CN1CCC(c2ccccc2)(c2ccccc2)C1=O)NCc1ccc(F)cc1 [Example 12, N-(4-fluorobenzyl)-2-(2-oxo-3,3-diphenylpyrrolidin-1-yl)acetamide]",3890 nM
3,"O=C(CN1CCC(c2ccccc2)(c2ccccc2)C1=O)NCCC(c1ccccc1)c1ccccc1 [Example 13, N-(3,3-diphenylpropyl)-2-(2-oxo-3,3-diphenylpyrrolidin-1-yl)acetamide]",990 nM
4,"O=C(CN1CCC(c2ccccc2)(c2ccccc2)C1=O)NC(c1ccccc1)c1ccccc1 [Example 14, N-benzhydryl-2-(2-oxo-3,3-diphenylpyrrolidin-1-yl)acetamide]",970 nM
5,"O=C(CN1CCC(c2ccccc2)(c2ccccc2)C1=O)NCC(c1ccccc1)c1ccccc1 [Example 15, N-(2,2-diphenylethyl)-2-(2-oxo-3,3-diphenylpyrrolidin-1-yl)acetamide]",870 nM
6,"CC(CNC(=O)CN1CCC(c2ccccc2)(c2ccccc2)C1=O)(c1ccccc1)c1ccccc1 [Example 16, N-(2,2-diphenylpropyl)-2-(2-oxo-3,3-diphenylpyrrolidin-1-yl)acetamide]",900 nM
7,"O=C(CN1CCC(c2ccccc2)(c2ccccc2)C1=O)N1CCNC(Cc2ccccc2)C1 (centres unmarked) [Example 18, 1-[2-(3-benzylpiperazin-1-yl)-2-oxoethyl]-3,3-diphenylpyrrolidin-2-one]",2650 nM
8,"O=C(CN1CCC(c2ccccc2)(c2ccccc2)C1=O)N1CCc2ccccc2C1 [Example 19, 1-[2-(3,4-dihydroisoquinolin-2(1H)-yl)-2-oxoethyl]-3,3-diphenylpyrrolidin-2-one]",3310 nM
9,"O=C(CN1CCC(c2ccccc2)(c2ccccc2)C1=O)N1Cc2ccc(C(F)(F)F)cc2C1 [Example 20, 1-{2-oxo-2-[5-(trifluoromethyl)-1,3-dihydro-2H-isoindol-2-yl]ethyl}-3,3-diphenylpyrrolidin-2-one]",2820 nM
10,"O=C(CN1CCC(c2ccccc2)(c2ccccc2)C1=O)N1CCC(c2ccccc2)C1 (centres unmarked) [Example 21, 1-[2-oxo-2-(3-phenylpyrrolidin-1-yl)ethyl]-3,3-diphenylpyrrolidin-2-one]",1830 nM
11,"O=C(CN1CCC(c2ccccc2)(c2ccccc2)C1=O)NC1Cc2ccccc2C1 [Example 22, N-2,3-dihydro-1H-inden-2-yl-2-(2-oxo-3,3-diphenylpyrrolidin-1-yl)acetamide]",3960 nM
12,"O=C(CN1CCC(c2ccccc2)(c2ccccc2)C1=O)N1CCOC(c2ccccc2)(c2ccccc2)C1 [Example 23, 1-[2-(2,2-diphenylmorpholin-4-yl)-2-oxoethyl]-3,3-diphenylpyrrolidin-2-one]",690 nM
13,"O=C(CN1CCC(c2ccccc2)(c2ccccc2)C1=O)N1CCCC(c2ccccc2)(c2ccccc2)C1 [Example 24, 1-[2-(3,3-diphenylpiperidin-1-yl)-2-oxoethyl]-3,3-diphenylpyrrolidin-2-one]",810 nM
14,"O=C(CN1CCC(c2ccccc2)(c2ccccc2)C1=O)N1CCC(c2ccccc2)(c2ccccc2)CC1 [Example 25, 1-[2-(4,4-diphenylpiperidin-1-yl)-2-oxoethyl]-3,3-diphenylpyrrolidin-2-one]",460 nM
15,"O=C(CN1CCC(c2ccccc2)(c2ccccc2)C1=O)N1Cc2ccc(F)cc2C1 [Example 26, 1-[2-(5-fluoro-1,3-dihydro-2H-isoindol-2-yl)-2-oxoethyl]-3,3-diphenylpyrrolidin-2-one]",4930 nM
16,"O=C(CN1CCC(c2ccccc2)(c2ccccc2)C1=O)NC1CCCc2ccccc21 (centres unmarked) [Example 27, 2-(2-oxo-3,3-diphenylpyrrolidin-1-yl)-N-1,2,3,4-tetrahydronaphthalen-1-ylacetamide]",3030 nM
17,"O=C(CN1CCC(c2ccccc2)(c2ccccc2)C1=O)N1CCN(Cc2cccc(C(F)(F)F)c2)C(=O)C1 [Example 29, 4-[(2-oxo-3,3-diphenylpyrrolidin-1-yl)acetyl]-1-[3-(trifluoromethyl)benzyl]piperazin-2-one]",1140 nM
18,"O=C(CN1CCC(c2ccccc2)(c2ccccc2)C1=O)N1CCC(C(c2ccccc2)c2ccccc2)CC1 [Example 30, 1-[2-(4-benzhydrylpiperidin-1-yl)-2-oxoethyl]-3,3-diphenylpyrrolidin-2-one]",650 nM

row,Compound,IC50
1,"O=C(CN1CCC(c2ccccc2)(c2ccccc2)C1=O)N1CCC(=C(c2ccccc2)c2ccccc2)CC1 [Example 31, 1-{2-[4-(diphenylmethylene)piperidin-1-yl]-2-oxoethyl}-3,3-diphenylpyrrolidin-2-one]",1910 nM
2,"O=C(CN1CCC(c2ccccc2)(c2ccccc2)C1=O)N1CCC(C(O)(c2ccc(F)cc2)c2ccc(F)cc2)CC1 [Example 32, 1-(2-{4-[bis(4-fluorophenyl)(hydroxy)methyl]piperidin-1-yl}-2-oxoethyl)-3,3-diphenylpyrrolidin-2-one]",710 nM
3,"O=C(CN1CCC(c2ccccc2)(c2ccccc2)C1=O)N1CCC(C(O)(c2cccc(C(F)(F)F)c2)c2cccc(C(F)(F)F)c2)CC1 [Example 33, 1-{2-[4-(hydroxy{bis[3-(trifluoromethyl)phenyl]}methyl)piperidin-1-yl]-2-oxoethyl}-3,3-diphenylpyrrolidin-2-one]",7550 nM
4,"O=C(CN1CCC(c2ccccc2)(c2ccccc2)C1=O)N1CCC(C(O)(c2ccccc2)c2ccccc2)CC1 [Example 34, 1-(2-{4-[hydroxy(diphenyl)methyl]piperidin-1-yl}-2-oxoethyl)-3,3-diphenylpyrrolidin-2-one]",960 nM
5,"COc1ccc2[nH]cc(C3=CCN(C(=O)CN4CCC(c5ccccc5)(c5ccccc5)C4=O)CC3)c2c1 [Example 35, 1-{2-[4-(5-methoxy-1H-indol-3-yl)-3,6-dihydropyridin-1(2H)-yl]-2-oxoethyl}-3,3-diphenylpyrrolidin-2-one]",8070 nM
6,"O=C(CN1CCC(c2ccccc2)(c2ccccc2)C1=O)N1CCN(Cc2c(Cl)cccc2Cl)CC1 [Example 36, 1-{2-[4-(2,6-dichlorobenzyl)piperazin-1-yl]-2-oxoethyl}-3,3-diphenylpyrrolidin-2-one]",900 nM
7,"O=C(CN1CCC(c2ccccc2)(c2ccccc2)C1=O)N1CCN(Cc2cccc(C(F)(F)F)c2)CC1 [Example 37, 1-(2-oxo-2-{4-[3-(trifluoromethyl)benzyl]piperazin-1-yl}ethyl)-3,3-diphenylpyrrolidin-2-one]",1030 nM
8,"O=C(CN1CCC(c2ccccc2)(c2ccccc2)C1=O)N1CCN(Cc2ccc(F)cc2)CC1 [Example 38, 1-{2-[4-(4-fluorobenzyl)piperazin-1-yl]-2-oxoethyl}-3,3-diphenylpyrrolidin-2-one]",2220 nM
9,"O=C(CN1CCC(c2ccccc2)(c2ccccc2)C1=O)NCC1CCN(Cc2ccccc2)C1 (centres unmarked) [Example 39, N-[(1-benzylpyrrolidin-3-yl)methyl]-2-(2-oxo-3,3-diphenylpyrrolidin-1-yl)acetamide]",2600 nM
10,"CC1(NC(=O)CN2CCC(c3ccccc3)(c3ccccc3)C2=O)CCN(Cc2ccccc2)C1 (centres unmarked) [Example 40, N-(1-benzyl-3-methylpyrrolidin-3-yl)-2-(2-oxo-3,3-diphenylpyrrolidin-1-yl)acetamide]",2110 nM
11,"O=C(CN1CCC(c2ccccc2)(c2ccccc2)C1=O)N1CCC(NCc2cccc(C(F)(F)F)c2)CC1 [Example 42, 1-[2-oxo-2-(4-{[3-(trifluoromethyl)benzyl]amino}piperidin-1-yl)ethyl]-3,3-diphenylpyrrolidin-2-one]",1130 nM
12,"O=C(CN1CCC(c2ccccc2)(c2ccccc2)C1=O)N1CCN(Cc2ccc(Cl)cc2Cl)CC1 [Example 43, 1-{2-[4-(2,4-dichlorobenzyl)piperazin-1-yl]-2-oxoethyl}-3,3-diphenylpyrrolidin-2-one]",520 nM
13,"CC(c1cccc(C(F)(F)F)c1)N1CCN(C(=O)CN2CCC(c3ccccc3)(c3ccccc3)C2=O)CC1 (centres unmarked) [Example 44, 1-[2-oxo-2-(4-{1-[3-(trifluoromethyl)phenyl]ethyl}piperazin-1-yl)ethyl]-3,3-diphenylpyrrolidin-2-one]",770 nM
14,"O=C(CN1CCC(c2ccccc2)(c2ccccc2)C1=O)N1CCN(C(c2ccccc2)c2ccc(F)cc2)CC1 (centres unmarked) [Example 46, 1-(2-{4-[(4-fluorophenyl)(phenyl)methyl]piperazin-1-yl}-2-oxoethyl)-3,3-diphenylpyrrolidin-2-one]",450 nM
15,"O=C(CN1CCC(c2ccccc2)(c2ccccc2)C1=O)N1CCN(C(c2ccccc2)c2ccc(Cl)cc2)CC1 (centres unmarked) [Example 47, 1-(2-{4-[(4-chlorophenyl)(phenyl)methyl]piperazin-1-yl}-2-oxoethyl)-3,3-diphenylpyrrolidin-2-one]",1010 nM
16,"O=C(CN1CCC(c2ccccc2)(c2ccccc2)C1=O)NC1CCN(C(c2ccccc2)c2ccccc2)CC1 [Example 48, N-(1-benzhydrylpiperidin-4-yl)-2-(2-oxo-3,3-diphenylpyrrolidin-1-yl)acetamide]",400 nM
17,"C[C@@H]1CN(C(c2ccccc2)c2ccccc2)CCN1C(=O)CN1CCC(c2ccccc2)(c2ccccc2)C1=O [Example 49, 1-{2-[(2R)-4-benzhydryl-2-methylpiperazin-1-yl]-2-oxoethyl}-3,3-diphenylpyrrolidin-2-one]",2760 nM
